What all share (assay type): in vivo
Test [1] deals with Lolium rigidum. In words: Pre-emergence herbicidal effect. To be noted: 80 g/ha, visual score after 3 weeks vs untreated controls. From the text: (§1) Seeds of monocotyledonous and dicotyledonous weed plants and crop plants are laid out in sandy loam soil in wood-fiber pots and covered with soil. The compounds of the invention, formulated in the form of wettable powders (WP) or as emulsion concentrates (EC), are then applied to the surface of the covering soil as aqueous suspension or emulsion at a water application rate equating to 600 to 800 L/ha with addition of 0.2% wetting agent. After the treatment, the pots are placed in a greenhouse and kept under good growth conditions for the trial plants. The damage to the test plants is scored visually after a test period of 3 weeks by comparison with untreated controls (herbicidal activity in percent (%): 100% activity=the plants have died, 0% activity=like control plants).

In test [2] the test system is Setaria viridis. In words: Pre-emergence herbicidal effect. The settings on record: 80 g/ha, visual score after 3 weeks vs untreated controls.
Text: as §1

The subject of test [3] is Digitaria sanguinalis. In words: Pre-emergence herbicidal effect. To be noted: 80 g/ha, visual score after 3 weeks vs untreated controls.
Text: as §1

Test [4] relates to Alopecurus myosuroides. In words: Pre-emergence herbicidal effect. To be noted: 80 g/ha, visual score after 3 weeks vs untreated controls.
Text: as §1

Test [5] has as its system Echinochloa crus-galli. In words: Pre-emergence herbicidal effect. The settings on record: 80 g/ha, visual score after 3 weeks vs untreated controls.
Text: as §1

Test [6] has as its system Avena fatua. In words: Pre-emergence herbicidal effect. The settings on record: 80 g/ha, visual score after 3 weeks vs untreated controls.
Text: as §1

Test [7] deals with Lolium rigidum. In words: Post-emergence herbicidal effect. The settings on record: 80 g/ha, post-emergence at one-leaf stage, visual score after about 3 weeks. Here is the method:
(§2) Seeds of monocotyledonous and dicotyledonous weed and crop plants are laid out in sandyloam soil in wood-fiber pots, covered with soil and cultivated in a greenhouse under good growth conditions. 2 to 3 weeks after sowing, the test plants are treated at the one-leaf stage. The compounds of the invention, formulated in the form of wettable powders (WP) or as emulsion concentrates (EC), are then sprayed onto the green parts of the plants as aqueous suspension or emulsion at a water application rate equating to 600 to 800 l/ha with addition of 0.2% wetting agent. After the test plants have been left to stand in the greenhouse under optimal growth conditions for about 3 weeks, the action of the preparations is assessed visually in comparison to untreated controls (herbicidal action in percent (%): 100% activity=the plants have died, 0% activity=like control plants).

In test [8] the test system is Hordeum murinum. In words: Post-emergence herbicidal effect. To be noted: 80 g/ha, post-emergence at one-leaf stage, visual score after about 3 weeks. On the procedure: as §2
For test [9], the system named is Setaria viridis. In words: Post-emergence herbicidal effect. The settings on record: 80 g/ha, post-emergence at one-leaf stage, visual score after about 3 weeks. On the procedure:
as §2

Test [10] concerns Alopecurus myosuroides. In words: Post-emergence herbicidal effect. The settings on record: 80 g/ha, post-emergence at one-leaf stage, visual score after about 3 weeks. Here is the method: as §2
The test system of test [11] is Echinochloa crus-galli. In words: Post-emergence herbicidal effect. The settings on record: 80 g/ha, post-emergence at one-leaf stage, visual score after about 3 weeks. Here is the method:
as §2

For test [12], the system named is Digitaria sanguinalis. In words: Post-emergence herbicidal effect. To be noted: 80 g/ha, post-emergence at one-leaf stage, visual score after about 3 weeks. On the procedure:
as §2

Each structure is given as a SMILES string.

For the molecule `CC#Cc1cc(Br)c(C2=C(OC(=O)OCC)C3(CCC(OC(C)C)CC3)NC2=O)c(OC)c1` (stereo not drawn) [Example 1.3.12], the “Pre-emergence action LOLRI (herbicidal activity in percent)” value in test [1] is reported as 100%. The “Pre-emergence action SETVI (herbicidal activity in percent)” value in [2] is 100%. For the same molecule, the “Pre-emergence action DIGSA (herbicidal activity in percent)” value in [3] turned out to be 100%. Also, in test [4], the “Pre-emergence action ALOMY (herbicidal activity in percent)” value is listed as 100%. In addition, the “Pre-emergence action ECHCG (herbicidal activity in percent)” value in test [5] stood at 100%. In addition, the “Pre-emergence action AVEFA (herbicidal activity in percent)” value in [6] is listed as 80%.
As for `CC#Cc1cc(Br)c(C2=C(OC(=O)OCC)C3(CCC4(CC3)OCCO4)NC2=O)c(OC)c1` [Example 1.2.01], in test [1], the “Pre-emergence action LOLRI (herbicidal activity in percent)” value was found to be 100%. The “Pre-emergence action SETVI (herbicidal activity in percent)” value in test [2] was 100%. For the same molecule, in test [3], the “Pre-emergence action DIGSA (herbicidal activity in percent)” value was determined as 100%. Further, the “Pre-emergence action ALOMY (herbicidal activity in percent)” value in test [4] is on record as 90%. Also, in [5], the “Pre-emergence action ECHCG (herbicidal activity in percent)” value came out at 100%. Also, the “Pre-emergence action AVEFA (herbicidal activity in percent)” value in test [6] stood at 100%. The “Post-emergence action against LOLRI (herbicidal action in percent)” value in test [7] is listed as 100%. For the same molecule, the “Post-emergence action against HORMU (herbicidal action in percent)” value in [8] was determined as 100%. In addition, the “Post-emergence action against SETVI (herbicidal action in percent)” value in [9] came out at 100%. The “Post-emergence action against ALOMY (herbicidal action in percent)” value in [10] is on record as 100%. Besides, the “Post-emergence action against ECHCG (herbicidal action in percent)” value in [11] came out at 100%.
For `CC#Cc1cc(Br)c(C2=C(O)C3(CCC(OC(C)C)CC3)NC2=O)c(OC)c1` (stereo not drawn) [Example 1.3.09], in test [1], the “Pre-emergence action LOLRI (herbicidal activity in percent)” value stood at 100%. The “Pre-emergence action SETVI (herbicidal activity in percent)” value in test [2] came to 100%. For the same molecule, the “Pre-emergence action DIGSA (herbicidal activity in percent)” value in test [3] worked out at 100%. The “Pre-emergence action ALOMY (herbicidal activity in percent)” value in test [4] turned out to be 100%. Moreover, in [5], the “Pre-emergence action ECHCG (herbicidal activity in percent)” value is on record as 90%. In addition, the “Pre-emergence action AVEFA (herbicidal activity in percent)” value in test [6] stood at 100%.
With `CC#Cc1cc(Br)c(C2=C(OC(=O)OC)C3(CCC(OCCOC)CC3)NC2=O)c(OC)c1` (stereo not drawn) [Example 1.3.06], the “Pre-emergence action LOLRI (herbicidal activity in percent)” value in [1] amounted to 100%. In test [2], the “Pre-emergence action SETVI (herbicidal activity in percent)” value stood at 100%. In addition, in test [3], the “Pre-emergence action DIGSA (herbicidal activity in percent)” value worked out at 100%. Further, in [4], the “Pre-emergence action ALOMY (herbicidal activity in percent)” value was determined as 100%. For the same molecule, in test [5], the “Pre-emergence action ECHCG (herbicidal activity in percent)” value is given as 100%. Also, in test [6], the “Pre-emergence action AVEFA (herbicidal activity in percent)” value is given as 100%.
Turning to `CC#Cc1cc(Br)c(C2=C(OC(C)=O)C3(CCC(OCCOC)CC3)NC2=O)c(OC)c1` (stereo not drawn) [Example 1.3.08], the “Pre-emergence action LOLRI (herbicidal activity in percent)” value in test [1] amounted to 100%. The “Pre-emergence action SETVI (herbicidal activity in percent)” value in [2] is 100%. Moreover, in test [3], the “Pre-emergence action DIGSA (herbicidal activity in percent)” value is given as 100%. Further, in [4], the “Pre-emergence action ALOMY (herbicidal activity in percent)” value is recorded as 100%. In addition, the “Pre-emergence action ECHCG (herbicidal activity in percent)” value in [5] amounted to 100%. Besides, the “Pre-emergence action AVEFA (herbicidal activity in percent)” value in [6] is on record as 90%.
Turning to `CC#Cc1cc(Br)c(C2=C(O)C3(CCC(OCCOC)CC3)NC2=O)c(OC)c1` (stereo not drawn) [Example 1.3.05], in test [1], the “Pre-emergence action LOLRI (herbicidal activity in percent)” value was determined as 100%. Also, in [2], the “Pre-emergence action SETVI (herbicidal activity in percent)” value is 100%. In test [3], the “Pre-emergence action DIGSA (herbicidal activity in percent)” value stood at 100%. Moreover, the “Pre-emergence action ALOMY (herbicidal activity in percent)” value in test [4] was found to be 100%. Moreover, the “Pre-emergence action ECHCG (herbicidal activity in percent)” value in test [5] came to 100%. Also, in test [6], the “Pre-emergence action AVEFA (herbicidal activity in percent)” value is recorded as 90%.
As to `CC#Cc1cc(Br)c(C2=C(OC(=O)C(C)C)C3(CCOCC3)NC2=O)c(OC)c1` [Example 1.1.04], the “Post-emergence action against DIGSA (herbicidal action in percent)” value in test [12] was 100%.

The values above are taken from patent US20220056040A1, “NOVEL 3-(2-BROMO-4-ALKYNYL-6-ALKOXYPHENYL)-3-PYRROLIN-2-ONES AND THEIR USE AS HERBICIDES” (Bayer Aktiengesellschaft, priority 2019, published 2022).
